We go through 21 compounds from ChEMBL document CHEMBL1149395, “Beta-substituted cyclohexanecarboxamide: a nonpeptidic framework for the design of potent inhibitors of cathepsin K” (J Med Chem, 2006).

The structures appear in SMILES notation. Where only a bound is given, the exact number is not on record here.

The first experiment concerns the target Cathepsin K (Homo sapiens, UniProt P43235). Kind of experiment: Inhibitory activity against humanized rabbit Cathepsin K.
What is called IC50 is the concentration that inhibits the measured activity by half. With `N#CCNC(=O)[C@@H]1CCCC[C@H]1CSc1nc2ccccc2o1` (racemic), the IC50 turned out to be 0.48 µM.
Compound `N#CCNC(=O)[C@@H]1CCCC[C@H]1CSc1cc(Cl)cc(Cl)c1` (racemic) yielded an IC50 of 0.28 µM.
On to `N#CCNC(=O)[C@@H]1CCCC[C@H]1CSc1cccc(F)c1` (racemic), for which the IC50 was 0.35 µM.
Consider `N#CCNC(=O)[C@@H]1CCCC[C@H]1CSc1cccc(Br)c1` (mixture of isomers), for which it took 0.15 µM to reach half-maximal inhibition (IC50).
For `N#CCNC(=O)[C@@H]1CCCC[C@H]1CSc1cccc(O)c1`, the IC50 turned out to be 0.33 µM.
For the compound `N#CCNC(=O)[C@@H]1CCCC[C@H]1CSc1ccc(Cl)cc1Cl` (mixture of isomers), the IC50 came out at 0.11 µM.
Turning to `N#CCNC(=O)[C@@H]1CCCC[C@H]1CSc1cccc(N)c1` (racemic), the IC50 turned out to be 0.7 µM.
In the case of `Cc1ccc(SC[C@@H]2CCCC[C@H]2C(=O)NCC#N)cc1` (racemic), the IC50 is 0.1 µM.
Same read-out and setting: under `N#CCNC(=O)[C@@H]1CCCC[C@H]1CSc1nnc(-c2ccncc2)o1` (relative stereo) stands 0.95 µM; under `N#CCNC(=O)[C@@H]1CCCC[C@H]1CSc1ccc(Cl)cc1` (racemic), 0.03 µM; under `N#CCNC(=O)[C@@H]1CCCC[C@H]1CSc1ccc(F)cc1` (mixture of isomers), 0.03 µM.
On to `N#CCNC(=O)[C@@H]1CCCC[C@H]1CSc1ccc(N)cc1` (mixture of isomers), for which inhibition was half-maximal at 0.1 µM (IC50).
`N#CCNC(=O)[C@@H]1CCCC[C@H]1CSc1nccs1` (racemic): half-maximal inhibition (IC50) required 0.49 µM.
Same read-out and setting: then `N#CCNC(=O)[C@@H]1CCCC[C@H]1CSc1cc(Cl)c(Cl)cc1Cl` (racemic), with 0.46 µM.
Same read-out and setting: then `N#CCNC(=O)[C@@H]1CCCC[C@H]1CSc1ccc(I)cc1` (relative stereo), with 0.017 µM.

The target of the next experiment is Cathepsin (B and K) (Homo sapiens) (UniProt P43235+P07858). Kind of experiment: Selectivity for Cathepsin B over Cathepsin K. It counts as protein assay.
As for `CSc1ccc(-c2ccccc2C2CCC(F)CC2C(=O)NCC#N)cc1` (racemic; form 2), the Selectivity ratio is > 2700.
For the compound `CSc1ccc(-c2ccccc2C2CCC(F)CC2C(=O)NCC#N)cc1` (racemic; form 1), the Selectivity ratio is > 2400.
Still for that read-out and setting: under `Cc1ccc(SC[C@@H]2CCCC[C@H]2C(=O)NCC#N)cc1` (racemic) stands 380; under `N#CCNC(=O)[C@@H]1CCCC[C@H]1CSc1ccc(Cl)cc1` (racemic), > 3400.
With `N#CCNC(=O)[C@@H]1CCCC[C@H]1CSc1ccc(F)cc1` (mixture of isomers), the Selectivity ratio was 145.
On the same count and under the same terms, then `N#CCNC(=O)[C@@H]1CCCC[C@H]1CSc1ccc(N)cc1` (mixture of isomers), with > 990; and `N#CCNC(=O)[C@@H]1CCCC[C@H]1CSc1ccc(I)cc1` (relative stereo), with > 5800.

The target in a further experiment is Cathepsin (S and K) (Homo sapiens) (UniProt P25774+P43235). In words: Selectivity for Cathepsin S over Cathepsin K. It counts as protein assay.
On to `CSc1ccc(-c2ccccc2C2CCC(F)CC2C(=O)NCC#N)cc1` (racemic; form 2), for which the Selectivity ratio was 180.
Regarding `CSc1ccc(-c2ccccc2C2CCC(F)CC2C(=O)NCC#N)cc1` (racemic; form 1), the Selectivity ratio was 1500.
Same read-out and setting: under `Cc1ccc(SC[C@@H]2CCCC[C@H]2C(=O)NCC#N)cc1` (racemic) stands 180; under `N#CCNC(=O)[C@@H]1CCCC[C@H]1CSc1ccc(Cl)cc1` (racemic), 330.
The same measure, in the same setting: then `N#CCNC(=O)[C@@H]1CCCC[C@H]1CSc1ccc(F)cc1` (mixture of isomers), with 35; and `N#CCNC(=O)[C@@H]1CCCC[C@H]1CSc1ccc(N)cc1` (mixture of isomers), with 120; and `N#CCNC(=O)[C@@H]1CCCC[C@H]1CSc1ccc(I)cc1` (relative stereo), with > 5800.

Another experiment has as its target T1, Cathepsin K (Homo sapiens, UniProt P43235).
T1 sequence (P43235 whole entry): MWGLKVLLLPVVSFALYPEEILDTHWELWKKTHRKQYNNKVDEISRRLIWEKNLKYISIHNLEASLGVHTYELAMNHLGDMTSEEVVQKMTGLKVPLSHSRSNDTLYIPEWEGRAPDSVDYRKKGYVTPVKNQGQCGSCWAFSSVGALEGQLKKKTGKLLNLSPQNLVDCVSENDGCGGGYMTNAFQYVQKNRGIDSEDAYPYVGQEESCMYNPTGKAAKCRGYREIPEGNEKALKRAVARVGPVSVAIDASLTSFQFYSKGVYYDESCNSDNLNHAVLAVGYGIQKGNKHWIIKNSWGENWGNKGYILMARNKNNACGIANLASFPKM
In words: Inhibitory activity against human Cathepsin K.
`N#CCNC(=O)[C@@H]1CCCC[C@H]1SCc1ccccc1` (racemic) returned an IC50 of 0.052 µM.
`N#CCNC(=O)[C@@H]1CCCC[C@@H]1SCc1ccccc1` (racemic) came in with an IC50 of 0.28 µM.
The compound `N#CCNC(=O)C1=CCCCC1` yielded an IC50 of 3.4 µM.
The same measure, in the same setting: then `N#CCNC(=O)C1(NC(=O)c2ccccc2)CCCCC1`, with 0.078 µM.

The target in another experiment is Cathepsin (L and K) (Homo sapiens) (UniProt P43235+P07711). Kind of experiment: Selectivity for Cathepsin L over Cathepsin K. It counts as protein assay.
For `CSc1ccc(-c2ccccc2C2CCC(F)CC2C(=O)NCC#N)cc1` (racemic; form 2), the Selectivity ratio came to 2000.
On to `CSc1ccc(-c2ccccc2C2CCC(F)CC2C(=O)NCC#N)cc1` (racemic; form 1), for which the Selectivity ratio amounted to 1600.
`Cc1ccc(SC[C@@H]2CCCC[C@H]2C(=O)NCC#N)cc1` (racemic): the Selectivity ratio came out at 110.
`N#CCNC(=O)[C@@H]1CCCC[C@H]1CSc1ccc(Cl)cc1` (racemic): the Selectivity ratio turned out to be 120.
As to `N#CCNC(=O)[C@@H]1CCCC[C@H]1CSc1ccc(F)cc1` (mixture of isomers), the Selectivity ratio amounted to 120.
Same read-out and setting: under `N#CCNC(=O)[C@@H]1CCCC[C@H]1CSc1ccc(N)cc1` (mixture of isomers) stands 350; under `N#CCNC(=O)[C@@H]1CCCC[C@H]1CSc1ccc(I)cc1` (relative stereo), 52.
